Reference: BindingDB's records for doi:10.1016/s0960-894x(02)00995-2 (The Oxford Centre For Molecular Sciences and The Dyson …, 2003)

Biological target: T1, Chymotrypsin-like elastase family member 2A (Sus scrofa, UniProt P08419)
T1 sequence (P08419 whole entry): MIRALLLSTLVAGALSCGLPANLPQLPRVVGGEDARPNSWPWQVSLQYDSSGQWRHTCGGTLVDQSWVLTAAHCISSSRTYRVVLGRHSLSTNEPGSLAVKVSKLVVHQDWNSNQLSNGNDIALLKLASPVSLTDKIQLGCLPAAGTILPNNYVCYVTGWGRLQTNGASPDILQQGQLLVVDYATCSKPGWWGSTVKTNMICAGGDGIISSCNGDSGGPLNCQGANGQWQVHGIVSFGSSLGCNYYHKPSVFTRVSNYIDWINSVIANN
Experiment: ChEBML_152310
From the text: Inhibitory concentration against porcine pancreatic elastase (PPE)

Question: Which IC50 does the source give for `CCC(C)[C@H]1C(=O)N(S(=O)(=O)c2ccc(C)cc2)CCN1C(=O)OC(C)(C)C` (stereo partly drawn) [(S)-2-sec-Butyl-3-oxo-4-(toluene-4-sulfonyl)-piperazine-1-carboxylic acid tert-butyl ester] here?
Answer: 293 µM

Question: Which IC50 does the source give for `CC(C)C[C@H]1C(=O)N(S(C)(=O)=O)CCN1C(=O)OC(C)(C)C` [(S)-2-Isobutyl-4-methanesulfonyl-3-oxo-piperazine-1-carboxylic acid tert-butyl ester] here?
Answer: 923 µM

Question: With `CC(C)C[C@H]1C(=O)N(Cc2ccccc2)CCN1S(C)(=O)=O` [(S)-1-Benzyl-3-isobutyl-4-methanesulfonyl-piperazin-2-one] as the compound, how does the IC50 read?
Answer: 2000 µM

Question: How did the IC50 turn out when `Cc1ccc(S(=O)(=O)N2CCN(Cc3ccccc3)C(=O)[C@@H]2CC(C)C)cc1` [(S)-1-Benzyl-3-isobutyl-4-(toluene-4-sulfonyl)-piperazin-2-one] was run?
Answer: 62 µM
